US20260283153A1 (priority 2023, published 2026)

Experiments:
Phytophthora infestans = assay: whole plant or invertebrate; type: in vivo; settings: in Solanum lycopersicum, foliar, read-out: control of Phytophthora infestans
Pythium ultimum = assay: Pythium ultimum/liquid culture (seedling damping off); type: cell-based; settings: Globisporangium ultimum, liquid culture, growth inhibition determined photometrically 2-3 days after application, compared to untreated control
Protocol: Mycelia fragments and oospores of a newly grown liquid culture of the fungus are directly mixed into nutrient broth (PDB potato dextrose broth). After placing a (DMSO) solution of test compound into a microtiter plate (96-well format), the nutrient broth containing the fungal mycelia/spore mixture is added. The test plates are incubated at 24° C. and the inhibition of growth is determined photometrically 2-3 days after application.

Plasmopara viticola = assay: whole plant or invertebrate; type: in vivo; settings: foliar, read-out: control of Plasmopara viticola
[1] = test system: Monographella nivalis (Microdochium nivale); assay: Monographella nivalis (Microdochium nivale)/liquid culture (foot rot cereals); type: cell-based; settings: liquid culture, growth inhibition determined photometrically 4-5 days after application, compared to untreated control
Protocol: The fungicidal activity of the compounds of the invention have been tested as follows: • Monographella nivalis (Microdochium nivale)/liquid culture (foot rot cereals) Conidia of the fungus from cryogenic storage are directly mixed into nutrient broth (PDB potato dextrose broth). After placing a (DMSO) solution of test compound into a microtiter plate (96-well format), the nutrient broth containing the fungal spores is added. The test plates are incubated at 24° C. and the inhibition of growth is determined photometrically 4-5 days after application.

SMILES | pest or weed control at 200 ppm (Phytophthora infestans) [%] | inhibition of growth at 20 ppm (Pythium ultimum) [%] | pest or weed control at 200 ppm (Plasmopara viticola) [%] | inhibition of growth at 20 ppm [1] [%]
COC(=O)Nc1ccc(-c2cnc3cnc(C(=O)N4CCCc5cc(F)ccc54)cn23)cn1 [Compound 42, methyl N-[5-[6-(6-fluoro-3,4-dihydro-2H-quinoline-1-carbonyl)imidazo[1,2-a]pyrazin-3-yl]-2-pyridyl]carbamate] | ≥ 80 | – | – | –
COC(=O)Nc1ccc(-c2cnc3cnc(C(=O)N(CC#N)c4ccc(F)c(OC)c4)cn23)cn1 [Compound 2, methyl N-[5-[6-[cyanomethyl-(4-fluoro-3-methoxy-phenyl)carbamoyl]imidazo[1,2-a]pyrazin-3-yl]-2-pyridyl]carbamate] | ≥ 80 | ≥ 80 | – | –
COCN(C(=O)c1cn2c(-c3ccc(NC(=O)OC)nc3)cnc2cn1)c1ccc(C#N)c(OC)c1 [Compound 55, methyl N-[5-[6-[(4-cyano-3-methoxy-phenyl)-(methoxymethyl)carbamoyl]imidazo[1,2-a]pyrazin-3-yl]-2-pyridyl]carbamate] | – | ≥ 80 | ≥ 80 | –
COC(=O)Nc1ccc(-c2cnc3cnc(C(=O)N(CC#N)c4ccc(Cl)c(OC)c4)cn23)cn1 [Compound 3, methyl N-[5-[6-[(4-chloro-3-methoxy-phenyl)-(cyanomethyl)carbamoyl]imidazo[1,2-a]pyrazin-3-yl]-2-pyridyl]carbamate] | ≥ 80 | ≥ 80 | – | –
COC(=O)Nc1ccc(-c2cnc3cnc(C(=O)N(C)c4ccc(C#N)cc4)cn23)cc1 [Compound 9, methyl N-[4-[6-[(4-cyanophenyl)-methyl-carbamoyl]imidazo[1,2-a]pyrazin-3-yl]phenyl]carbamate] | – | ≥ 80 | – | –
CC(=O)Nc1ccc(-c2cnc3cnc(C(=O)N(C)c4ccc(Br)cc4)cn23)cc1 [Compound 34, 3-(4-acetamidophenyl)-N-(4-bromophenyl)-N-methyl-imidazo[1,2-a]pyrazine-6-carboxamide] | – | ≥ 80 | – | ≥ 80
CC(=O)Nc1ccc(-c2cnc3cnc(C(=O)N(C)c4ccc(Cl)cc4)cn23)cc1 [Compound 37, 3-(4-acetamidophenyl)-N-(4-chlorophenyl)-N-methyl-imidazo[1,2-a]pyrazine-6-carboxamide] | ≥ 80 | – | ≥ 80 | –
CC(=O)Nc1ccc(-c2cnc3cnc(C(=O)N(C)c4ccc(F)cc4)cn23)cc1 [Compound 38, 3-(4-acetamidophenyl)-N-(4-fluorophenyl)-N-methyl-imidazo[1,2-a]pyrazine-6-carboxamide] | – | ≥ 80 | – | –
COCC(=O)Nc1ccc(-c2cnc3cnc(C(=O)N(C)c4ccc(Cl)cc4)cn23)cc1 [Compound 27, N-(4-chlorophenyl)-3-[4-[(2-methoxyacetyl)amino]phenyl]-N-methyl-imidazo[1,2-a]pyrazine-6-carboxamide] | – | ≥ 80 | – | –
COC(=O)Nc1ccc(-c2cnc3cnc(C(=O)N(C)c4ccc(C#N)c(OC)c4)cn23)cc1 [Compound 59, methyl N-[4-[6-[(4-cyano-3-methoxy-phenyl)-methyl-carbamoyl]imidazo[1,2-a]pyrazin-3-yl]phenyl]carbamate] | ≥ 80 | ≥ 80 | ≥ 80 | –
CC(=O)Nc1ccc(-c2cnc3cnc(C(=O)N(C)c4ccc(C#N)cc4)cn23)cc1 [Compound 36, 3-(4-acetamidophenyl)-N-(4-cyanophenyl)-N-methyl-imidazo[1,2-a]pyrazine-6-carboxamide] | – | – | ≥ 80 | –
COC(=O)Nc1ccc(-c2cnc3cnc(C(=O)N(C)c4ccc(Cl)cc4)cn23)cc1 [Compound 28, methyl N-[4-[6-[(4-chlorophenyl)-methyl-carbamoyl]imidazo[1,2-a]pyrazin-3-yl]phenyl]carbamate] | – | ≥ 80 | ≥ 80 | ≥ 80
COCN(C(=O)c1cn2c(-c3ccc(NC(=O)OC)nc3)cnc2cn1)c1ccc(F)c(OC)c1 [Compound 1, methyl N-[5-[6-[(4-fluoro-3-methoxy-phenyl)-(methoxymethyl)carbamoyl]imidazo[1,2-a]pyrazin-3-yl]-2-pyridyl]carbamate] | ≥ 80 | ≥ 80 | ≥ 80 | –
CCOC(=O)Nc1ccc(-c2cnc3cnc(C(=O)N(C)c4ccc(Cl)cc4)cn23)cc1 [Compound 8, ethyl N-[4-[6-[(4-chlorophenyl)-methyl-carbamoyl]imidazo[1,2-a]pyrazin-3-yl]phenyl]carbamate] | – | – | ≥ 80 | ≥ 80
COc1cc(N(C)C(=O)c2cn3c(-c4ccc(NC(C)=O)cc4)cnc3cn2)ccc1F [Compound 51, 3-(4-acetamidophenyl)-N-(4-fluoro-3-methoxy-phenyl)-N-methyl-imidazo[1,2-a]pyrazine-6-carboxamide] | ≥ 80 | – | – | –
COC(=O)Nc1ccc(-c2cnc3cnc(C(=O)N(C)c4ccc(F)c(OC)c4)cn23)cc1 [Compound 58, methyl N-[4-[6-[(4-fluoro-3-methoxy-phenyl)-methyl-carbamoyl]imidazo[1,2-a]pyrazin-3-yl]phenyl]carbamate] | ≥ 80 | ≥ 80 | ≥ 80 | –
CON(C)C(=O)Nc1ccc(-c2cnc3cnc(C(=O)N(C)c4ccc(Cl)cc4)cn23)cc1 [Compound 5, N-(4-chlorophenyl)-3-[4-[[methoxy(methyl)carbamoyl]amino]phenyl]-N-methyl-imidazo[1,2-a]pyrazine-6-carboxamide] | – | – | – | ≥ 80
COc1cc(N(C)C(=O)c2cn3c(-c4ccc(NC(=O)C5CC5)cc4)cnc3cn2)ccc1F [Compound 46, 3-[4-(cyclopropanecarbonylamino)phenyl]-N-(4-fluoro-3-methoxy-phenyl)-N-methyl-imidazo[1,2-a]pyrazine-6-carboxamide] | ≥ 80 | – | – | –
COC(=O)Nc1ccc(-c2cnc3cnc(C(=O)N4CCN(C)c5cc(F)ccc54)cn23)cn1 [Compound 53, methyl N-[5-[6-(6-fluoro-4-methyl-2,3-dihydroquinoxaline-1-carbonyl)imidazo[1,2-a]pyrazin-3-yl]-2-pyridyl]carbamate] | – | ≥ 80 | – | –
COC(=O)Nc1ccc(-c2cnc3cnc(C(=O)N(C)c4ccc(F)c(OC)c4)cn23)cn1 [Compound 4, methyl N-[5-[6-[(4-fluoro-3-methoxy-phenyl)-methyl-carbamoyl]imidazo[1,2-a]pyrazin-3-yl]-2-pyridyl]carbamate] | ≥ 80 | ≥ 80 | – | –
CNC(=O)Nc1ccc(-c2cnc3cnc(C(=O)N(C)c4ccc(Cl)cc4)cn23)cc1 [Compound 6, N-(4-chlorophenyl)-N-methyl-3-[4-(methylcarbamoylamino)phenyl]imidazo[1,2-a]pyrazine-6-carboxamide] | – | – | ≥ 80 | ≥ 80
COc1cc(N(C)C(=O)c2cn3c(-c4ccc(NC(=O)C5CC5)nc4)cnc3cn2)ccc1F [Compound 50, 3-[6-(cyclopropanecarbonylamino)-3-pyridyl]-N-(4-fluoro-3-methoxy-phenyl)-N-methyl-imidazo[1,2-a]pyrazine-6-carboxamide] | ≥ 80 | – | – | –
